Assay results published in patent US12102644B2, “Compounds and methods of promoting myelination” (Case Western Reserve University, priority 2019, dated 2024).

Key:
[1] = tested on: mouse brain sterol levels; test: Analysis of mouse brain sterol levels (GC/MS); format: in vivo; details: ifenprodil 10 mg per kg, tamoxifen 2 mg per kg, daily, 3 days
[2] = tested on: LPC-lesioned spinal cord; test: LPC focal demyelination of spinal cord, remyelination histology; format: in vivo, mouse; details: ifenprodil 10 mg per kg or tamoxifen 2 mg per kg, daily i.p., 8 days from day 4 after lesion
[3] = tested on: human induced pluripotent stem cell-derived cortical spheroids; test: Sterol profiling in human iPSC-derived cortical spheroids; format: cell-based
[4] = tested on: human myelinating cortical spheroids; test: MyRF+ oligodendrocytes in human myelinating cortical spheroids; format: cell-based; details: spheroids treated 10 days from day 62, stained day 93
Procedure: Spheroids at day 62 were treated with the indicated small molecules for 10 days and stained at day 93. Four spheroids were analyzed per treatment condition, and four fields per organoid were used in the quantitation. f) Representative images of spheroids. Nuclei are labeled with DAPI (blue), and oligodendrocytes are immunostained for MyRF (red). Scale bar, 100 μm.

[5] = mouse; cited from earlier work

CC(C(O)c1ccc(O)cc1)N1CCC(Cc2ccccc2)CC1 (centres unmarked) [ifenprodil, Ifenprodil]
8,9-unsaturated sterols in mouse CNS [1]: induced significant accumulation of 8,9-unsaturated sterols in vivo in the CNS | remyelination of LPC lesion [2]: remyelination was widespread throughout the lesion | 8,9-unsaturated sterol accumulation in human cortical spheroids [3]: led to 8,9-unsaturated sterol accumulation | formation of MyRF-positive human oligodendrocytes [4]: enhanced the formation of myelin regulatory factor (MyRF)-positive human oligodendrocytes | blood brain barrier penetration [5]: known to cross the mouse blood brain barrier
